From the supplement of paper PMC13380429
Structures can show the parent of a compound that is named as a salt.

How the values were obtained:
Details in all cases: 72 h
Vero E6 [1] = test: relative viability EC50 (midpoint between 100% and the lowest measured viability); higher = less toxic
U2OS [2] = test: as above
Calu-3 [3] = test: as above
HepG2 [4] = test: as above
Caco-2 [5] = test: as above
Vero E6 [6] = test: cell viability relative to DMSO; higher = less toxic
U2OS [7] = test: as above
Calu-3 [8] = test: as above
HepG2 [9] = test: as above
Caco-2 [10] = test: as above
Vero E6 [11] = test: drug sensitivity score (DSS) for viability; higher = more toxic; extreme values may be limits of the assay
U2OS [12] = test: as above
Calu-3 [13] = test: as above
HepG2 [14] = test: as above
Caco-2 [15] = test: as above

SMILES	relative viability EC50 (Vero E6 [1]) [µM]	relative viability EC50 (U2OS [2]) [µM]	relative viability EC50 (Calu-3 [3]) [µM]	relative viability EC50 (HepG2 [4]) [µM]	relative viability EC50 (Caco-2 [5]) [µM]	cell viability (Vero E6 [6]; 1 nM) [%]	cell viability (Vero E6 [6]; 10 nM) [%]	cell viability (Vero E6 [6]; 100 nM) [%]	cell viability (Vero E6 [6]; 1000 nM) [%]	cell viability (Vero E6 [6]; 10000 nM) [%]	cell viability (U2OS [7]; 1 nM) [%]	cell viability (U2OS [7]; 10 nM) [%]	cell viability (U2OS [7]; 100 nM) [%]	cell viability (U2OS [7]; 1000 nM) [%]	cell viability (U2OS [7]; 10000 nM) [%]	cell viability (Calu-3 [8]; 1 nM) [%]	cell viability (Calu-3 [8]; 10 nM) [%]	cell viability (Calu-3 [8]; 100 nM) [%]	cell viability (Calu-3 [8]; 1000 nM) [%]	cell viability (Calu-3 [8]; 10000 nM) [%]	cell viability (HepG2 [9]; 1 nM) [%]	cell viability (HepG2 [9]; 10 nM) [%]	cell viability (HepG2 [9]; 100 nM) [%]	cell viability (HepG2 [9]; 1000 nM) [%]	cell viability (HepG2 [9]; 10000 nM) [%]	cell viability (Caco-2 [10]; 1 nM) [%]	cell viability (Caco-2 [10]; 10 nM) [%]	cell viability (Caco-2 [10]; 100 nM) [%]	cell viability (Caco-2 [10]; 1000 nM) [%]	cell viability (Caco-2 [10]; 10000 nM) [%]	drug sensitivity score (Vero E6 [11])	drug sensitivity score (U2OS [12])	drug sensitivity score (Calu-3 [13])	drug sensitivity score (HepG2 [14])	drug sensitivity score (Caco-2 [15])
CC(C)(CO)Cc1cc(C(C)(C)C)c(O)c(C(C)(C)C)c1 [CGP-7930]	> 10	> 10	> 10	> 10	> 10	108	109	95.6	108	102	98.2	101	103	101	104	93.6	99.2	98.3	105	102	109	107	91.1	108	101	96.8	98.5	101	99.7	96	0	0	0	0	0
O=C(O)c1ccc2c(c1)nc(Nc1cccc(Cl)c1)c1ccncc12 [CX-4945]	> 10	> 10	> 10	> 10	> 10	101	98.4	101	95.1	86.5	102	101	101	88.4	84.8	111	103	111	101	83.2	106	109	92	102	77	98.7	95.2	92	95.6	97.7	0.4	1.1	0.3	0.7	0
O=C(O)CNC(=O)c1nc(Cl)c2ccccc2c1O [FG-2216]	> 10	> 10	> 10	> 10	> 10	100	99.4	104	102	99.5	107	98	101	91.5	93.2	106	98.5	96.6	103	103	101	98	96.4	99.1	95.3	98.2	102	99.3	94.1	93.5	0	0	0	0	0
O=C(NCCO)c1cccc(-c2cc(Nc3ccc(OC(F)(F)F)cc3)ncn2)c1 [GNF-5]	> 10	> 10	> 10	> 10	> 10	91.5	97.4	94.6	105	102	95.7	101	98.5	106	98.5	102	99.4	89.8	107	94	99.5	95.2	98.2	98.1	89.4	94.1	92.7	95.3	107	78.5	0	0	0	0	0.4
Cc1ccc(Nc2ncc3c(n2)N(C)C(=O)N(c2cc(NC(=O)c4cccc(C(F)(F)F)c4)ccc2C)C3)cn1 [GNF-7]	0.235	0.156	0.195	0.501	0.21	95.2	103	91	12	11.3	105	97.5	78.8	13.9	32.9	112	103	87.5	20.8	23.7	92.5	101	97.7	16.8	0.3	93.8	92.1	89.3	19.3	18.7	17.5	19	16.6	15.4	16.6
O=C(O)CCNc1cc(N2CCc3ccccc3CC2)nc(-c2ccccn2)n1 [GSK-J1]	> 10	> 10	> 10	> 10	> 10	102	94.8	96.2	95.2	102	90.4	100	91.9	98.6	102	97.5	93.3	97.9	104	111	109	89.9	113	101	91.3	91.6	92.4	100	99.7	104	0	0	0	0	0
CCOC(=O)c1c(/C(C#N)=C\N)c2ccc(Cl)c(Cl)c2n1C [KH-CB19]	> 10	> 10	> 10	> 10	> 10	96.2	104	98.4	103	92	102	99.6	103	96.5	107	98.2	97.7	96.6	101	101	99.8	105	98.7	102	93.2	101	93.6	103	99.2	92.4	0	0	0	0	0
O=C(Cc1ccc(-c2ccc(OCCN3CCOCC3)cc2)cn1)NCc1ccccc1 [KX2-391]	0.196	0.339	0.222	0.143	0.284	91.7	93.2	88.3	24.5	27.2	97.5	94.8	96.4	24.5	19.5	96.8	90.8	82.8	54.5	42	107	113	80.8	34.5	38.5	102	92.3	91.7	45.3	39.2	15.8	14.3	10.4	14.9	11.2
c1ccc(Oc2nc(NC3CCCCC3)c3[nH]cnc3n2)cc1 [MRS-3777]	> 10	> 10	> 10	> 10	> 10	98.7	96.2	93.5	97.2	78.2	97.5	98.8	97.5	108	103	92.7	95.7	102	104	101	110	97.5	88.7	99.2	99.4	87	104	99.6	109	100	1.1	0	0	0	0
c1ccc2sc(SNC3CCCCC3)nc2c1 [N-cyclohexyl-2-benzothiazolesulfenamide]	> 10	> 10	> 10	> 10	> 10	110	106	100	107	87.1	95.1	95	100	96.6	100	105	99.6	101	84	94.7	97.5	105	84.2	97.4	100	92.5	102	116	101	105	0	0	1.6	0	0
C=CCN1CC[C@]23c4c5ccc(O)c4O[C@H]2C(=O)CC[C@@]3(O)[C@H]1C5 [NALOXONE HYDROCHLORIDE]	> 10	> 10	> 10	> 10	> 10	99	103	104	95.9	100	103	99.7	102	103	100	94.5	94.4	88.5	91	99.6	106	97.9	102	95.9	103	98	94.7	101	100	104	0	0	0	0	0
